Paper PMC12025037, “Molecular Basis of Dipeptide Recognition in Drosophila melanogaster Angiotensin I-Converting Enzyme Homologue, AnCE” (Biomolecules, 2025)
Residues, ends and D or L forms follow the SMILES beside them.

Columns and labels:
cACE = system: cACE; design: method as in PMID 25053098; details: cited from earlier work
AnCE = biological target: T1, AnCE (Drosophila melanogaster, UniProt Q10714); test: Inhibition of AnCE activity, fluorogenic Abz-FRK(Dnp)-P substrate assay; assay type: biochemical; details: for IC50: AnCE 25 ng, substrate Abz-FRK(Dnp)-P, pH 7.5, 20 °C, 10 min pre-incubation with inhibitor; for Ki: AnCE
T1 construct: made in house; host or cells: Pichia pastoris GS115 (vector pPiC9), purified from the culture supernatant
T1 sequence (Q10714 18-615): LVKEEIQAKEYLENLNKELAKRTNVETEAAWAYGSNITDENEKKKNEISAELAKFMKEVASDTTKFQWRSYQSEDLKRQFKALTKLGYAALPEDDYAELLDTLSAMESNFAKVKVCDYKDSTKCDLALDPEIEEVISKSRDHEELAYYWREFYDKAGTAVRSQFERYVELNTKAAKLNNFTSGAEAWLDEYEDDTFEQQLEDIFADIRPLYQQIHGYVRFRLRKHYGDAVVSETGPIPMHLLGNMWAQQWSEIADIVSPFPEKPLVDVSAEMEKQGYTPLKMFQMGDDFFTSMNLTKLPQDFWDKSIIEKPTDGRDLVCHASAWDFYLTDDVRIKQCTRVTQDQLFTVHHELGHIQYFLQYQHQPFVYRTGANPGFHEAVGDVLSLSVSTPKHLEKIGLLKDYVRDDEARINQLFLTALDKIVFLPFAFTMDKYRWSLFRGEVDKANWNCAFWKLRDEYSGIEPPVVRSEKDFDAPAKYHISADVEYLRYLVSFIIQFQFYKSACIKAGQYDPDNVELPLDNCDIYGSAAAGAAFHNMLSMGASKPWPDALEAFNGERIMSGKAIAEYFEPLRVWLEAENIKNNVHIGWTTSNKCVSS
Experimental: Enzyme assays were performed using the internally quenched fluorogenic peptide Abz-FRK(Dnp)-P (Enzo Life Sciences Ltd., Exeter, UK) as a substrate for 25 ng of AnCE in 200 µL of 100 mM HEPES buffer pH 7.5 with 50 mM NaCl and 10 µM ZnCl2. The reaction was started by adding 2 µL of 5 mM Abz-FRK(Dnp)-P in dimethyl sulfoxide to the buffer in wells of a 96-well black plastic plate (Corning Life Sciences, High Wycombe, UK), and the release of fluorescence on hydrolysis of the substrate was monitored continuously at 20 °C using a FLUOstar Omega (BMG Labtech GmbH, Offenburg, Germany) with λex at 340 nm and λem set at 430 nm. For studying the effect of dipeptide inhibitors, the enzyme in the assay buffer was pre-incubated with inhibitor for 10 min prior to the addition of the substrate. IC50 values were determined using the non-linear regression curve-fitting software [log(inhibitor) vs. response] of GraphPad Prism 7.01 (GraphPad Software, San Diego, CA, USA). The coefficient of determination (R^2) values for the regression model ranged from 0.9852 to 0.9629. Ki values were obtained using the Cheng–Prusoff equation and a substrate Km of 14.24 µM, obtained using non-linear regression curve-fitting software (Michaelis–Menten) of GraphPad Prism 7.01. The R^2 for the Km determination was 0.9787 [31].

ACE = system: ACE; design: method as in doi:10.1007/s00217-013-2014-x; details: inhibition of ACE activity; cited from earlier work
nACE = biological target: nACE; design: method as in PMID 25053098; details: cited from earlier work
[1] = from IC50 by Cheng–Prusoff equation, substrate Km 14.24 µM

Row | SMILES | IC50 (AnCE) [µM] | Ki (AnCE; [1]) [µM] | Ki (AnCE; values restated in µM in the text) [µM] | inhibition of cACE (in words) (cACE) | Ki (cACE) [µM] | IC50 (ACE) [µM] | Ki (nACE) [µM]
1 | NC(N)=NCCC[C@H](N)C(=O)N[C@@H](Cc1c[nH]c2ccccc12)C(=O)O [RW] (H-Arg-Trp-OH) | 880 |  | 200 |  |  |  | 
2 | CC(C)[C@H](N)C(=O)N[C@@H](Cc1c[nH]c2ccccc12)C(=O)O [VW] (H-Val-Trp-OH) | 780 | 170 |  |  | 2.1 |  | 152

Further molecules by falling IC50 (AnCE), results first:

Row | IC50 (AnCE) [µM] | Ki (AnCE; [1]) [µM] | Ki (AnCE; values restated in µM in the text) [µM] | SMILES | inhibition of cACE (in words) (cACE) | Ki (cACE) [µM] | IC50 (ACE) [µM] | Ki (nACE) [µM]
3 | 3780 | 840 |  | N=C(N)NCCC[C@H](NC(=O)[C@@H](N)Cc1c[nH]c2ccccc12)C(=O)O [WR] (H-Trp-Arg-OH) | poor inhibitors |  |  | 
4 | 3400 | 750 |  | N[C@@H](Cc1ccc(O)cc1)C(=O)N[C@@H](Cc1c[nH]c2ccccc12)C(=O)O [YW] (H-Tyr-Trp-OH) | poor inhibitors |  |  | 
5 | 340 | 80 |  | CC[C@H](C)[C@H](N)C(=O)N[C@@H](Cc1c[nH]c2ccccc12)C(=O)O [IW] |  | 1.6 | 0.7 | 59.6
